Test [1] concerns the target Cholinesterase (Homo sapiens, UniProt P06276). Description: Inhibition of human plasma BChE after 5 mins by Ellman's method. In kind it is cell-free.
Test [2] has as its target T1, Acetylcholinesterase (Homo sapiens, UniProt P22303). Briefly: Inhibition of human erythrocyte AChE after 5 mins by Ellman's method. On the technique in general: Ellman's reagent forms a yellow product with free thiols.
Test [3] has as its target T1, Acetylcholinesterase. Description: Inhibition of human erythrocyte AChE at 0.0000001 mM to 1 mM after 5 mins by Ellman's method.
Test [4] concerns the target T1, Acetylcholinesterase. Description: Inhibition of human erythrocyte AChE after 5 mins by noncompetitive Lineweaver-Burke plot analysis for enzyme-inhibitor complex.
In test [5] the target is T1, Acetylcholinesterase. Briefly: Inhibition of human erythrocyte AChE after 5 mins by noncompetitive Lineweaver-Burke plot analysis.

Calls of active or inactive are those of the source. The rule behind the calls is not given here.

A word on the IC50: it is the concentration at which inhibition is half-maximal. The Ki is a measure of affinity in units of concentration, obtained from inhibition or displacement.

Chain of Cholinesterase (P06276 whole entry): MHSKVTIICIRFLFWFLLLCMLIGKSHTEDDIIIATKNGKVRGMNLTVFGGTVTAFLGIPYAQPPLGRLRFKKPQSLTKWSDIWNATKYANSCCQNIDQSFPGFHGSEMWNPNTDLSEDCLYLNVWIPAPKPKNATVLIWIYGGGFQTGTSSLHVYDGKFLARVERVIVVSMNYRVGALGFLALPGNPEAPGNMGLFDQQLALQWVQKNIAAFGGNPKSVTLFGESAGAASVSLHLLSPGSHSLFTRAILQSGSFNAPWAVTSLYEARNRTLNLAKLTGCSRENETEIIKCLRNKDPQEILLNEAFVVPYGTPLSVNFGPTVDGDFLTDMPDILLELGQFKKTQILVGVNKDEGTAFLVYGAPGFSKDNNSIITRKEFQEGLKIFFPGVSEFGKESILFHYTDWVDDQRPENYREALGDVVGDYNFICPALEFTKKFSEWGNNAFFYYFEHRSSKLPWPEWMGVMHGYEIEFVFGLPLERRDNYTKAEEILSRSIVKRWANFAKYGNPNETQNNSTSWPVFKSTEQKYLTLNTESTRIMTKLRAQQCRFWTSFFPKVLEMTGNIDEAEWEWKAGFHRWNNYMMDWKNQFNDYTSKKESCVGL
T1 sequence (P22303 whole entry): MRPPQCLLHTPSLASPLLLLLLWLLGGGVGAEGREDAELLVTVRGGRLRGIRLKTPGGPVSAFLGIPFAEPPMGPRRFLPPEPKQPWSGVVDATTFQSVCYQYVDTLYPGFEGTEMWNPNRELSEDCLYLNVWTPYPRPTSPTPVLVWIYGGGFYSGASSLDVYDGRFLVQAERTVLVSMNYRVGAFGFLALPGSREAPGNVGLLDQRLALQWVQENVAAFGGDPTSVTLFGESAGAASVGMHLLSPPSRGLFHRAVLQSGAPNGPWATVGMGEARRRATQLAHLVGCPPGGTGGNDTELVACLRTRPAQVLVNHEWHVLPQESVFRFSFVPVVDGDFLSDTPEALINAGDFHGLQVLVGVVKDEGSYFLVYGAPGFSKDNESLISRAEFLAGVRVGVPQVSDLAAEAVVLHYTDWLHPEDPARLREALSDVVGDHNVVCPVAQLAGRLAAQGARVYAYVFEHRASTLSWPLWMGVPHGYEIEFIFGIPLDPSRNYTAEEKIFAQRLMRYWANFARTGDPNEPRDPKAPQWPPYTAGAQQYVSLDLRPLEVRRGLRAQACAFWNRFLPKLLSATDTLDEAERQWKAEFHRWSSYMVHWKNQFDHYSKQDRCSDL

Take `c1cc[n+](COC[n+]2ccccc2)cc1`: the IC50 was found to be 583 µM in test [1] and 1770 µM in test [2].
With `c1cc[n+](Cc2cccc(C[n+]3ccccc3)c2)cc1`, the values for the IC50 in test [1] and in test [2] were 1380 µM and 2360 µM, respectively.
As to `C(=C/C[n+]1ccccc1)/C[n+]1ccccc1`, the IC50 in test [1] is 1270 µM; in test [2] it was 1990 µM.
Take `c1cc[n+](CCCCCCCCCCCC[n+]2ccccc2)cc1`: the inhibition result in test [3] was “inactive”.
As for `c1cc[n+](CCCCCCCCC[n+]2ccccc2)cc1`, the IC50 worked out at 6 µM in test [1] and 2 µM in test [2].
Regarding `c1cc[n+](CCC[n+]2ccccc2)cc1`, the inhibition result in test [3] was “inactive”.
Consider `C(=C\C[n+]1ccccc1)/C[n+]1ccccc1`, for which the IC50 in test [1] was determined as 541 µM; in test [2] it was 2290 µM.
`CN(C)C(=O)Oc1cccc([N+](C)(C)C)c1` [NEOSTIGMINE BROMIDE] came in with an IC50 in test [1] of 0.8 µM.
Regarding `c1cc[n+](Cc2ccccc2C[n+]2ccccc2)cc1`, the IC50 in test [1] is 345 µM; in test [2] it was 636 µM.
Taken in the same sequence, the figures for `c1cc[n+](CCOCC[n+]2ccccc2)cc1` were 2360 µM and 2010 µM.
Taken in the same sequence, the figures for `c1cc[n+](CCCCCCCC[n+]2ccccc2)cc1` were 29 µM and 31 µM.
Taken in the same sequence, the figures for `c1cc[n+](Cc2ccc(C[n+]3ccccc3)cc2)cc1` were 529 µM and 1540 µM.
For `c1cc[n+](Cc2ccc3ccc(C[n+]4ccccc4)cc3c2)cc1`, the figures for the IC50 in test [1] and in test [2] were 0.8 µM and 0.2 µM, respectively. The Ki in test [4] and in test [5] was 0.14 µM each time.
For the compound `c1cc[n+](CCCCCCC[n+]2ccccc2)cc1`, the IC50 in test [1] worked out at 78 µM; in test [2] it was 241 µM.
`c1cc[n+](CC[n+]2ccccc2)cc1`: in test [3], the inhibition result is “inactive”.
On to `c1cc[n+](CCCCCC[n+]2ccccc2)cc1`, for which the results for the IC50 in test [1] and in test [2] were 130 µM and 63 µM, respectively.
In the case of `c1cc[n+](CCCCCCCCCCC[n+]2ccccc2)cc1`, the IC50 was 7 µM in test [1] and 0.7 µM in test [2]. The Ki stood at 0.02 µM in test [4] and 0.03 µM in test [5].
For `c1cc[n+](C[n+]2ccccc2)cc1`, in test [3], the inhibition result is “inactive”.
`c1cc[n+](CCCC[n+]2ccccc2)cc1`: the IC50 in test [1] turned out to be 9800 µM; in test [2], 505 µM.
The like results for `c1cc[n+](CCCCC[n+]2ccccc2)cc1` were, in that order, 120 µM and 1270 µM.
